From patent US11155517B2, “4-substituted phenylamine derivatives and their use to protect crops by fighting undesired phytopathogenic micoorganisms” (PI INDUSTRIES LTD., priority 2016, dated 2021)

Key:
Format in all cases: cell-based
Fusarium culmorum = Fusarium culmorum (foot rot of cereals) in vitro test, radial growth on Potato Dextrose Agar; conditions: Fusarium culmorum, 168 h, read-out: % control compared to the untreated check (radial growth)
Septoria lycopersici = Septoria lycopersici (leaf spot of tomato) in vitro test, radial growth on Potato Dextrose Agar; conditions: 168 h, seven days, 25° C., read-out: % control compared to the untreated check (radial growth)
Botrytis cinerea = Botrytis cinerea (gray mold) in vitro test, radial growth on Potato Dextrose Agar; conditions: 168 h, 300 ppm, seven days, 22° C., read-out: % (control) compared to the untreated check (radial growth)
Colletotrichum capsici = Colletotrichum capsici (anthracnose) in vitro test, radial growth on Potato Dextrose Agar; conditions: Colletotrichum truncatum, 168 h; 300 ppm; seven days, 25° C.; read-out: % control compared to the untreated check (radial growth)
Pyricularia oryzae = experiment: microbe, parasite or virus in culture; conditions: 168 h, read-out: % control compared to the untreated check (radial growth)
Alternaria solani = Alternaria solani (early blight of tomato/potato) in vitro test, radial growth on Potato Dextrose Agar; conditions: 168 h, 300 ppm, seven days, 25° C., read-out: % control compared to the untreated check (radial growth)
Rhizoctonia solani = Rhizoctonia solani (rice sheath blight/potato black scurf) in vitro test, radial growth on Potato Dextrose Agar; conditions: 168 h, 300 ppm, seven days, 25° C., read-out: % control compared to the untreated check (radial growth)

Row | SMILES | inhibition of growth at 300 ppm (Fusarium culmorum) [%] | inhibition of growth at 300 ppm (Septoria lycopersici) [%] | inhibition of growth at 300 ppm (Botrytis cinerea) [%] | inhibition of growth at 300 ppm (Colletotrichum capsici) [%] | inhibition of growth at 300 ppm (Pyricularia oryzae) [%] | inhibition of growth at 300 ppm (Alternaria solani) [%] | inhibition of growth at 300 ppm (Rhizoctonia solani) [%]
1 | CCN(C)C=Nc1cc(F)c(Cc2ccccc2C)cc1C [Compound 186, N-ethyl-N′-(5-fluoro-2-methyl-4-(2-methylbenzyl)phenyl)-N-methylformimidamide] | 75 | > 70 | > 80 | > 80 | > 75 | > 75 | > 80
2 | CCN(C)C=Nc1cc(C)c(Cc2cc(F)cc(C(F)(F)F)c2)cc1C [Compound 52, N-ethyl-N′-(4-(3-fluoro-5-(trifluoromethyl)benzyl)-2,5-dimethylphenyl)-N-methylformimidamide] | 75 | > 70 | > 80 | > 80 | > 75 | > 75 | > 80
3 | CCN(C)C=Nc1cc(C)c(Cc2ccc(C)c(C)c2)cc1C [Compound 113, N′-(4-(3,4-dimethylbenzyl)-2,5-dimethylphenyl)-N-ethyl-N-methylformimidamide] | 75 | > 70 | > 80 | > 80 | > 75 | > 75 | > 80
4 | CCN(C)C=Nc1cc(F)c(Cc2ccccc2F)cc1C [Compound 185, N-ethyl-N′-(5-fluoro-4-(2-fluorobenzyl)-2-methylphenyl)-N-methylformimidamide] | 75 | > 70 | > 80 | > 80 | > 75 | > 75 | > 80
5 | CCN(C)C=Nc1cc(C)c(Cc2ccccc2Cl)cc1F [Compound 213, N′-(4-(2-chlorobenzyl)-2-fluoro-5-methylphenyl)-N-ethyl-N-methylformimidamide] | 75 | > 70 | > 80 | > 80 | > 75 | > 75 | > 80
6 | Cc1cc(N=CN(C)C(C)C)c(C)cc1Cc1ccccc1Cl [Compound 82, N′-(4-(2-chlorobenzyl)-2,5-dimethylphenyl)-N-isopropyl-N-methylformimidamide] | 75 | > 70 | > 80 | > 80 | > 75 | > 75 | > 80
7 | CCN(C)C=Nc1cc(Cl)c(Cc2cccc(Cl)c2)cc1C [Compound 258, N′-(5-chloro-4-(3-chlorobenzyl)-2-methylphenyl)-N-ethyl-N-methylformimidamide] | 75 | > 70 | > 80 | > 80 | > 75 | > 75 | > 80
8 | CCN(C)C=Nc1cc(C)c(Cc2cccc(C)c2)cc1C1CC1 [Compound 198, N′-(2-cyclopropyl-5-methyl-4-(3-methylbenzyl)phenyl)-N-ethyl-N-methylformimidamide] | 75 | > 70 | > 80 | > 80 | > 75 | > 75 | > 80
9 | CCN(C)C=Nc1cc(C(F)(F)F)c(Cc2cccc(C)c2)cc1C1CC1 [Compound 263, N′-(2-cyclopropyl-4-(3-methylbenzyl)-5-(trifluoromethyl)phenyl)-N-ethyl-N-methylformimidamide] | 75 | > 70 | > 80 | > 80 | > 75 | > 75 | > 80
10 | CCN(C)C=Nc1cc(C)c(Cc2cccc(C(F)(F)F)c2)cc1C [Compound 46, N′-(2,5-dimethyl-4-(3-(trifluoromethyl)benzyl)phenyl)-N-ethyl-N-methylformimidamide] | 75 | > 70 | > 80 | > 80 | > 75 | > 75 | > 80
11 | CCN(C)C=Nc1cc(C)c(Cc2ccc(C(F)(F)F)cc2F)cc1C [Compound 201, N-ethyl-N′-(4-(2-fluoro-4-(trifluoromethyl)benzyl)-2,5-dimethylphenyl)-N-methylformimidamide] | 75 | > 70 | > 80 | > 80 | > 75 | > 75 | > 80
12 | CCN(C)C=Nc1cc(C)c(Cc2cccc(C#N)c2)cc1C [Compound 47, N′-(4-(3-cyanobenzyl)-2,5-dimethylphenyl)-N-ethyl-N-methylformimidamide] | 75 | > 70 | > 80 | > 80 | > 75 | > 75 | > 80
13 | Cc1cc(N=CN2CCCCC2)c(C)cc1Cc1ccccc1F [Compound 58, N-(4-(2-fluorobenzyl)-2,5-dimethylphenyl)-1-(piperidin-1-yl)methanimine] | 75 | > 70 | > 80 | > 80 | > 75 | > 75 | > 80
14 | CCN(C)C=Nc1cc(C)c(Cc2ccccc2F)cc1C1CC1 [Compound 221, N′-(2-cyclopropyl-4-(2-fluorobenzyl)-5-methylphenyl)-N-ethyl-N-methylformimidamide] | 75 | > 70 | > 80 | > 80 | > 75 | > 75 | > 80
15 | CCN(C)C=Nc1cc(F)c(Cc2cccc(C)c2)cc1C [Compound 171, N-ethyl-N′-(5-fluoro-2-methyl-4-(3-methylbenzyl)phenyl)-N-methylformimidamide] | 75 | > 70 | > 80 | > 80 | > 75 | > 75 | > 80
16 | CCN(C)C=Nc1cc(C)c(Cc2ccc(C)cc2)cc1C1CC1 [Compound 222, N′-(2-cyclopropyl-5-methyl-4-(4-methylbenzyl)phenyl)-N-ethyl-N-methylformimidamide] | 75 | > 70 | > 80 | > 80 | > 75 | > 75 | > 80
